{"source": "ChEMBL document CHEMBL1201862", "about": "“PubChem BioAssay data set” (2004)", "assay_in_all_cases": "DTP human tumour cell line panel, 48 h", "key": {"[1]": {"system": "M14"}, "[2]": {"system": "MDA-MB-435"}, "[3]": {"system": "SK-MEL-28"}, "[4]": {"system": "Hs-578T"}, "[5]": {"system": "CAKI-1"}, "[6]": {"system": "A549"}, "[7]": {"system": "UACC-257"}, "[8]": {"system": "OVCAR-8"}, "[9]": {"system": "RPMI-8226"}, "[10]": {"system": "TK-10"}, "[11]": {"system": "OVCAR-4"}, "[12]": {"system": "SNB-75"}, "[13]": {"system": "SK-MEL-2"}, "[14]": {"system": "ACHN"}, "[15]": {"system": "CCRF-CEM"}, "[16]": {"system": "IGROV-1"}, "[17]": {"system": "Malme-3M"}, "[18]": {"system": "786-0"}, "[19]": {"system": "NCI/ADR-RES"}, "[20]": {"system": "NCI-H460"}, "[21]": {"system": "OVCAR-3"}, "[22]": {"system": "HCC 2998"}, "[23]": {"system": "A498"}, "[24]": {"system": "SK-MEL-5"}, "[25]": {"system": "HCT-116"}, "[26]": {"system": "NCI-H226"}, "[27]": {"system": "SF-295"}, "[28]": {"system": "MDA-MB-231"}, "[29]": {"system": "UACC-62"}, "[30]": {"system": "SR"}, "[31]": {"system": "DU-145"}, "[32]": {"system": "COLO 205"}, "[33]": {"system": "MDA-N"}, "[34]": {"system": "T47D"}, "[35]": {"system": "BT-549"}, "[36]": {"system": "NCI-H23"}, "[37]": {"system": "LOX IMVI"}, "[38]": {"system": "OVCAR-5"}, "[39]": {"system": "K562"}, "[40]": {"system": "U-251"}, "[41]": {"system": "SNB-19"}, "[42]": {"system": "SW-620"}, "[43]": {"system": "SN12C"}, "[44]": {"system": "RXF 393"}, "[45]": {"system": "MOLT-4"}, "[46]": {"system": "HOP-62"}, "[47]": {"system": "PC-3"}, "[48]": {"system": "UO-31"}, "[49]": {"system": "SF-268"}, "[50]": {"system": "HCT-15"}, "[51]": {"system": "KM12"}, "[52]": {"system": "NCI-H522"}, "[53]": {"system": "HOP-92"}, "[54]": {"system": "HT-29"}, "[55]": {"system": "SK-OV-3"}, "[56]": {"system": "HL-60"}, "[57]": {"system": "MCF7"}, "[58]": {"system": "SF-539"}}, "note": "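Assay format: 96-well plates, 48-hour exposure. The concentration for 50% growth inhibition is given as GI50.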 Calls of active or inactive are those of the source. No stated cut-off is given here; in the data, active = GI50 up to about 1.1 µM and inactive = higher.", "data": [{"smiles": "COC(=O)C12OC(C)(C(CC(=O)OC(C)(C)C)C1=O)C1C(=O)N(c3ccccc3)C(=O)C12", "note": "(configuration not stated)", "values": [{"measurement": "GI50", "setting": "[1]", "value": "> 100 µM (inactive)"}, {"measurement": "GI50", "setting": "[2]", "value": "> 100 µM (inactive)"}, {"measurement": "GI50", "setting": "[3]", "value": "> 100 µM (inactive)"}, {"measurement": "GI50", "setting": "[4]", "value": "> 100 µM (inactive)"}, {"measurement": "GI50", "setting": "[5]", "value": "> 100 µM (inactive)"}, {"measurement": "GI50", "setting": "[6]", "value": "> 100 µM (inactive)"}, {"measurement": "GI50", "setting": "[7]", "value": "> 100 µM (inactive)"}, {"measurement": "GI50", "setting": "[8]", "value": "> 100 µM (inactive)"}, {"measurement": "GI50", "setting": "[9]", "value": "> 100 µM (inactive)"}, {"measurement": "GI50", "setting": "[10]", "value": "> 100 µM (inactive)"}, {"measurement": "GI50", "setting": "[11]", "value": "> 100 µM (inactive)"}, {"measurement": "GI50", "setting": "[12]", "value": "> 100 µM (inactive)"}, {"measurement": "GI50", "setting": "[13]", "value": "> 100 µM (inactive)"}, {"measurement": "GI50", "setting": "[14]", "value": "> 100 µM (inactive)"}, {"measurement": "GI50", "setting": "[15]", "value": "> 100 µM (inactive)"}, {"measurement": "GI50", "setting": "[16]", "value": "> 100 µM (inactive)"}, {"measurement": "GI50", "setting": "[17]", "value": "> 100 µM (inactive)"}, {"measurement": "GI50", "setting": "[18]", "value": "> 100 µM (inactive)"}, {"measurement": "GI50", "setting": "[19]", "value": "> 100 µM (inactive)"}, {"measurement": "GI50", "setting": "[20]", "value": "> 100 µM (inactive)"}, {"measurement": "GI50", "setting": "[21]", "value": "> 100 µM (inactive)"}, {"measurement": "GI50", "setting": "[22]", "value": "> 100 µM (inactive)"}, {"measurement": "GI50", "setting": "[23]", "value": "> 100 µM (inactive)"}, {"measurement": "GI50", "setting": "[24]", "value": "> 100 µM (inactive)"}, {"measurement": "GI50", "setting": "[25]", "value": "> 100 µM (inactive)"}, {"measurement": "GI50", "setting": "[26]", "value": "> 100 µM (inactive)"}, {"measurement": "GI50", "setting": "[27]", "value": "> 100 µM (inactive)"}, {"measurement": "GI50", "setting": "[28]", "value": "> 100 µM (inactive)"}, {"measurement": "GI50", "setting": "[29]", "value": "> 100 µM (inactive)"}, {"measurement": "GI50", "setting": "[30]", "value": "> 100 µM (inactive)"}, {"measurement": "GI50", "setting": "[31]", "value": "> 100 µM (inactive)"}, {"measurement": "GI50", "setting": "[32]", "value": "> 100 µM (inactive)"}, {"measurement": "GI50", "setting": "[33]", "value": "> 100 µM (inactive)"}, {"measurement": "GI50", "setting": "[34]", "value": "> 100 µM (inactive)"}, {"measurement": "GI50", "setting": "[35]", "value": "> 100 µM (inactive)"}, {"measurement": "GI50", "setting": "[36]", "value": "> 100 µM (inactive)"}, {"measurement": "GI50", "setting": "[37]", "value": "> 100 µM (inactive)"}, {"measurement": "GI50", "setting": "[38]", "value": "> 100 µM (inactive)"}, {"measurement": "GI50", "setting": "[39]", "value": "> 100 µM (inactive)"}, {"measurement": "GI50", "setting": "[40]", "value": "> 100 µM (inactive)"}, {"measurement": "GI50", "setting": "[41]", "value": "> 100 µM (inactive)"}, {"measurement": "GI50", "setting": "[42]", "value": "> 100 µM (inactive)"}, {"measurement": "GI50", "setting": "[43]", "value": "> 100 µM (inactive)"}, {"measurement": "GI50", "setting": "[44]", "value": "> 100 µM (inactive)"}, {"measurement": "GI50", "setting": "[45]", "value": "> 100 µM (inactive)"}, {"measurement": "GI50", "setting": "[46]", "value": "> 100 µM (inactive)"}, {"measurement": "GI50", "setting": "[47]", "value": "> 100 µM (inactive)"}, {"measurement": "GI50", "setting": "[48]", "value": "> 100 µM (inactive)"}, {"measurement": "GI50", "setting": "[49]", "value": "> 100 µM (inactive)"}, {"measurement": "GI50", "setting": "[50]", "value": "> 100", "unit": "µM"}, {"measurement": "GI50", "setting": "[51]", "value": "> 100 µM (inactive)"}, {"measurement": "GI50", "setting": "[52]", "value": "> 100 µM (inactive)"}, {"measurement": "GI50", "setting": "[53]", "value": "> 100 µM (inactive)"}, {"measurement": "GI50", "setting": "[54]", "value": "> 100 µM (inactive)"}, {"measurement": "GI50", "setting": "[55]", "value": "> 100 µM (inactive)"}]}, {"smiles": "[N-]=[N+]=NC1=CC(=O)c2cccc3cccc1c23", "values": [{"measurement": "GI50", "setting": "[1]", "value": "18.4 µM (inactive)"}, {"measurement": "GI50", "setting": "[2]", "value": "40 µM (inactive)"}, {"measurement": "GI50", "setting": "[3]", "value": "33.3 µM (inactive)"}, {"measurement": "GI50", "setting": "[4]", "value": "17.9 µM (inactive)"}, {"measurement": "GI50", "setting": "[5]", "value": "22.2 µM (inactive)"}, {"measurement": "GI50", "setting": "[6]", "value": "32.4 µM (inactive)"}, {"measurement": "GI50", "setting": "[7]", "value": "31.7 µM (inactive)"}, {"measurement": "GI50", "setting": "[56]", "value": "> 100 µM (inactive)"}, {"measurement": "GI50", "setting": "[9]", "value": "56.6 µM (inactive)"}, {"measurement": "GI50", "setting": "[10]", "value": "44.4 µM (inactive)"}, {"measurement": "GI50", "setting": "[11]", "value": "56.9 µM (inactive)"}, {"measurement": "GI50", "setting": "[12]", "value": "13.5 µM (inactive)"}, {"measurement": "GI50", "setting": "[14]", "value": "29.2 µM (inactive)"}, {"measurement": "GI50", "setting": "[15]", "value": "10.6 µM (inactive)"}, {"measurement": "GI50", "setting": "[16]", "value": "15.8 µM (inactive)"}, {"measurement": "GI50", "setting": "[17]", "value": "31.4 µM (inactive)"}, {"measurement": "GI50", "setting": "[18]", "value": "31.9 µM (inactive)"}, {"measurement": "GI50", "setting": "[20]", "value": "31.1 µM (inactive)"}, {"measurement": "GI50", "setting": "[21]", "value": "31.7 µM (inactive)"}, {"measurement": "GI50", "setting": "[22]", "value": "38 µM (inactive)"}, {"measurement": "GI50", "setting": "[23]", "value": "12.2 µM (inactive)"}, {"measurement": "GI50", "setting": "[24]", "value": "12 µM (inactive)"}, {"measurement": "GI50", "setting": "[25]", "value": "23.5 µM (inactive)"}, {"measurement": "GI50", "setting": "[27]", "value": "24.9 µM (inactive)"}, {"measurement": "GI50", "setting": "[28]", "value": "73.8 µM (inactive)"}, {"measurement": "GI50", "setting": "[29]", "value": "16.5 µM (inactive)"}, {"measurement": "GI50", "setting": "[30]", "value": "67.3 µM (inactive)"}, {"measurement": "GI50", "setting": "[31]", "value": "33.4 µM (inactive)"}, {"measurement": "GI50", "setting": "[32]", "value": "49.7 µM (inactive)"}, {"measurement": "GI50", "setting": "[33]", "value": "46.2 µM (inactive)"}, {"measurement": "GI50", "setting": "[34]", "value": "22.3 µM (inactive)"}, {"measurement": "GI50", "setting": "[35]", "value": "27.1 µM (inactive)"}, {"measurement": "GI50", "setting": "[36]", "value": "20.7 µM (inactive)"}, {"measurement": "GI50", "setting": "[37]", "value": "17.3 µM (inactive)"}, {"measurement": "GI50", "setting": "[38]", "value": "49.3 µM (inactive)"}, {"measurement": "GI50", "setting": "[57]", "value": "34.2 µM (inactive)"}, {"measurement": "GI50", "setting": "[58]", "value": "31 µM (inactive)"}, {"measurement": "GI50", "setting": "[39]", "value": "26.2 µM (inactive)"}, {"measurement": "GI50", "setting": "[40]", "value": "20.1 µM (inactive)"}, {"measurement": "GI50", "setting": "[41]", "value": "36.5 µM (inactive)"}, {"measurement": "GI50", "setting": "[42]", "value": "17 µM (inactive)"}, {"measurement": "GI50", "setting": "[43]", "value": "43.3 µM (inactive)"}, {"measurement": "GI50", "setting": "[44]", "value": "16.8 µM (inactive)"}, {"measurement": "GI50", "setting": "[45]", "value": "10.7 µM (inactive)"}, {"measurement": "GI50", "setting": "[46]", "value": "15.7 µM (inactive)"}, {"measurement": "GI50", "setting": "[47]", "value": "16.6 µM (inactive)"}, {"measurement": "GI50", "setting": "[48]", "value": "24.9 µM (inactive)"}, {"measurement": "GI50", "setting": "[49]", "value": "29.9 µM (inactive)"}, {"measurement": "GI50", "setting": "[51]", "value": "85.9 µM (inactive)"}, {"measurement": "GI50", "setting": "[53]", "value": "18.4 µM (inactive)"}, {"measurement": "GI50", "setting": "[54]", "value": "34.6 µM (inactive)"}, {"measurement": "GI50", "setting": "[55]", "value": "15.3 µM (inactive)"}]}]}
